Source: patent US6355799B1, “Substituted benzene compounds, process for their preparation, and herbicidal and defoliant compositions containing them” (ISK Americas Incorporated, priority 1997, dated 2002)

Assays:
Type in all cases: in vivo
[1] = system: redroot pigweed (Amaranthus retroflexus, AMARE); assay: Pre-emerge test, greenhouse herbicide activity screening; settings: phytotoxicity rating 0-100, 14 days after application
Outline: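 Rating: 0–100 visual injury, 14 DAA. Application: acetone, 187 l/ha, 15–1000 g ai/ha, flat-fan track sprayer with nozzle 40–45 cm above soil or canopy. Post-emerge runs used 0.25% v/v surfactant on 2–3 leaf plants.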

[2] = system: large crabgrass (Digitaria sanguinalis, DIGSA); assay: as above; settings: phytotoxicity rating 0-100, 14 days after application
Outline: (§1)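 Compounds in acetone were track-sprayed at 187 l/ha, 15–1000 g ai/ha, onto sandy loam pots. Pre-emerge seeds were sown one day before spraying, with surface watering afterwards. Post-emerge plants were at the 2–3 leaf stage and sprayed with 0.25% v/v non-ionic surfactant. Injury was rated 0–100 at 14 days.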

[3] = system: lambsquarters (Chenopodium album, CHEAL); assay: as above; settings: phytotoxicity rating 0-100, 14 days after application
Outline: as §1

[4] = system: ivyleaf morningglory (Ipomoea hederacea, IPOHE); assay: as above; settings: phytotoxicity rating 0-100, 14 days after application
Outline: as §1

[5] = system: barnyardgrass (Echinochloa crus-galli, ECHCG); assay: as above; settings: phytotoxicity rating 0-100, 14 days after application
Outline: as §1

[6] = system: sicklepod (Cassia obtusifolia, CASOB); assay: as above; settings: phytotoxicity rating 0-100, 14 days after application
Outline: as §1

[7] = system: common ragweed (Ambrosia artemisizfolia L., AMBEL); assay: as above; settings: phytotoxicity rating 0-100, 14 days after application
Outline: as §1

[8] = system: johnsongrass (Sorghum halepense, SORHA); assay: as above; settings: phytotoxicity rating 0-100, 14 days after application
Outline: as §1

[9] = system: velvetleaf (Abutilon theophrasti, ABUTH); assay: as above; settings: phytotoxicity rating 0-100, 14 days after application
Outline: as §1

[10] = system: green foxtail (Setaria viridis, SETVI); assay: as above; settings: phytotoxicity rating 0-100, 14 days after application
Outline: as §1

[11] = system: upland rice (Oryza sp., var. Tebonnet, RICE); assay: Post-emerge test, crop safety; settings: post-emerge, 14 days after application, rating scale 0-100
Outline: as §1

[12] = system: field corn (Zea mays L., var. Dekalb 535, CORN); assay: Post-emerge test, crop safety; settings: post-emerge, 14 days after application, rating scale 0-100
Outline: as §1

[13] = system: large crabgrass (Digitaria sanguinalis, DIGSA); assay: Post-emerge test, greenhouse herbicide activity screening; settings: post-emerge, 14 days after application, rating scale 0-100
Outline: (§2)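 Herbicidal damage is scored 0 (none) to 100 (complete plant death) two weeks after a simulated field spray. Rates span 15–1000 g ai/ha, delivered in acetone at 187 l/ha. For post-emergence treatments, plants have 2–3 leaves and the spray carries 0.25% v/v non-ionic surfactant.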

[14] = system: lambsquarters (Chenopodium album, CHEAL); assay: as above; settings: post-emerge, 14 days after application, rating scale 0-100
Outline: as §2

[15] = system: ivyleaf morningglory (Ipomoea hederacea, IPOHE); assay: as above; settings: post-emerge, 14 days after application, rating scale 0-100
Outline: as §2

[16] = system: barnyardgrass (Echinochloa crus-galli, ECHCG); assay: as above; settings: post-emerge, 14 days after application, rating scale 0-100
Outline: as §2

[17] = system: sicklepod (Cassia obtusifolia, CASOB); assay: as above; settings: post-emerge, 14 days after application, rating scale 0-100
Outline: as §2

[18] = system: johnsongrass (Sorghum halepense, SORHA); assay: as above; settings: post-emerge, 14 days after application, rating scale 0-100
Outline: as §2

[19] = system: velvetleaf (Abutilon theophrasti, ABUTH); assay: as above; settings: post-emerge, 14 days after application, rating scale 0-100
Outline: as §2

[20] = system: redroot pigweed (Amaranthus retroflexus, AMARE); assay: as above; settings: post-emerge, 14 days after application
Outline: as §2

[21] = system: green foxtail (Setaria viridis, SETVI); assay: as above; settings: post-emerge, 14 days after application, rating scale 0-100
Outline: as §2

[22] = system: upland rice (Oryza sp., var. Tebonnet, RICE); assay: Pre-emerge test, crop safety; settings: crop damage rating 0-100, 14 days after application
Outline: as §1

[23] = system: field corn (Zea mays L., var. Dekalb 535, CORN); assay: Pre-emerge test, crop safety; settings: crop damage rating 0-100, 14 days after application
Outline: as §1

## Cn1c(C(F)(F)F)cc(=O)n(-c2ccc(Cl)cc2NC(=O)OCc2ccccc2F)c1=O [4-49]
[1]; 63 g ai/ha
  Pre-emerge Herbicidal Activity AMARE: 100
[1]; 250 g ai/ha
  Pre-emerge Herbicidal Activity AMARE: 100
[2]; 63 g ai/ha
  Pre-emerge Herbicidal Activity DIGSA: 70
[2]; 250 g ai/ha
  Pre-emerge Herbicidal Activity DIGSA: 100
[3]; 63 g ai/ha
  Pre-emerge Herbicidal Activity CHEAL: 100
[3]; 250 g ai/ha
  Pre-emerge Herbicidal Activity CHEAL: 100
[4]; 63 g ai/ha
  Pre-emerge Herbicidal Activity IPOHE: 40
[4]; 250 g ai/ha
  Pre-emerge Herbicidal Activity IPOHE: 100
[5]; 63 g ai/ha
  Pre-emerge Herbicidal Activity ECHCG: 10
[5]; 250 g ai/ha
  Pre-emerge Herbicidal Activity ECHCG: 75
[6]; 63 g ai/ha
  Pre-emerge Herbicidal Activity CASOB: 30
[6]; 250 g ai/ha
  Pre-emerge Herbicidal Activity CASOB: 60
[7]; 63 g ai/ha
  Pre-emerge Herbicidal Activity AMBEL: 80
[7]; 250 g ai/ha
  Pre-emerge Herbicidal Activity AMBEL: 60
[8]; 63 g ai/ha
  Pre-emerge Herbicidal Activity SORHA: 50
[8]; 250 g ai/ha
  Pre-emerge Herbicidal Activity SORHA: 90
[9]; 63 g ai/ha
  Pre-emerge Herbicidal Activity ABUTH: 95
[9]; 250 g ai/ha
  Pre-emerge Herbicidal Activity ABUTH: 100
[10]; 63 g ai/ha
  Pre-emerge Herbicidal Activity SETVI: 70
[10]; 250 g ai/ha
  Pre-emerge Herbicidal Activity SETVI: 100
[11]; 63 g ai/ha
  phytotoxicity rating RICE (crop damage): 10
[11]; 250 g ai/ha
  phytotoxicity rating RICE (crop damage): 70
[12]; 63 g ai/ha
  phytotoxicity rating CORN (crop damage): 20
[12]; 250 g ai/ha
  phytotoxicity rating CORN (crop damage): 80
[13]; 63 g ai/ha
  phytotoxicity rating DIGSA: 10
[13]; 250 g ai/ha
  phytotoxicity rating DIGSA: 10
[14]; 63 g ai/ha
  phytotoxicity rating CHEAL: 100
[14]; 250 g ai/ha
  phytotoxicity rating CHEAL: 100
[15]; 63 g ai/ha
  phytotoxicity rating IPOHE: 80
[15]; 250 g ai/ha
  phytotoxicity rating IPOHE: 100
[16]; 63 g ai/ha
  phytotoxicity rating ECHCG: 10
[16]; 250 g ai/ha
  phytotoxicity rating ECHCG: 10
[17]; 63 g ai/ha
  phytotoxicity rating CASOB: 80
[17]; 250 g ai/ha
  phytotoxicity rating CASOB: 100
[18]; 63 g ai/ha
  phytotoxicity rating SORHA: 0
[18]; 250 g ai/ha
  phytotoxicity rating SORHA: 10
[19]; 63 g ai/ha
  phytotoxicity rating ABUTH: 100
[19]; 250 g ai/ha
  phytotoxicity rating ABUTH: 100
[20]; 63 g ai/ha, rating scale 0-100 (0 no damage, 100 complete death)
  phytotoxicity rating AMARE: 100
[20]; 250 g ai/ha, rating scale 0-100
  phytotoxicity rating AMARE: 100
[21]; 63 g ai/ha
  phytotoxicity rating SETVI: 30
[21]; 250 g ai/ha
  phytotoxicity rating SETVI: 30
[22]; 63 g ai/ha
  Pre-emerge Herbicidal Activity RICE: 30
[22]; 250 g ai/ha
  Pre-emerge Herbicidal Activity RICE: 25
[23]; 63 g ai/ha
  Pre-emerge Herbicidal Activity CORN: 0
[23]; 250 g ai/ha
  Pre-emerge Herbicidal Activity CORN: 15
